Laboratory results from patent publication US20140113824A1, “BICYCLIC (THIO)CARBONYLAMIDINES” (BAYER INTELLECTUAL PROPERTY GMBH, priority 2011, published 2014).
Like-named read-outs stand apart in the source and are kept apart here.

Tests used:
Assay type in all cases: in vivo
[1] = test system: green peach aphid (Myzus persicae); assay: Myzus test (MYZUPE spray treatment); details: for pest or weed control at 500 g/ha: Myzus persicae, foliar, 144 h, read-out: effect in % (aphids killed)
Experimental: 2. Myzus Test (MYZUPE Spray Treatment)
(§1) Solvents: 78.0 parts by weight of acetone • • 1.5 parts by weight of dimethylformamide Emulsifier: 0.5 part by weight of alkylaryl polyglycol ether
(§2) To produce a suitable preparation of active compound, 1 part by weight of active compound is mixed with the stated amounts of solvent and emulsifier, and the concentrate is diluted with emulsifier-containing water to the desired concentration.
Disks of Chinese cabbage leaves (Brassica pekinensis) infested by all stages of the green peach aphid (Myzus persicae) are sprayed with an active compound preparation of the desired concentration.
After 6 days, the effect in % is determined. 100% means that all of the aphids have been killed; 0% means that none of the aphids have been killed.

Lucilia cuprina larvae = assay: Lucilia cuprina test (LUCICU); details: 100 ppm; treated horse meat; after 48 hours
Experimental: 5. Lucilia cuprina Test (LUCICU)
(§3) Solvent: dimethyl sulfoxide
(§4) To produce a suitable preparation of active compound, 10 mg of active compound are mixed with 0.5 ml of dimethyl sulfoxide, and the concentrate is diluted with water to the desired concentration.
Vessels containing horse meat treated with the active compound preparation of the desired concentration are populated with about 20 Lucilia cuprina larvae.
After 48 hours, the kill in % is determined 100% means that all larvae have been killed; 0% means that no larvae have been killed.

[2] = test system: larvae of the mustard beetle (Phaedon cochleariae); assay: Phaedon test (PHAECO spray treatment); details: application rate 500 g/ha; spray on Chinese cabbage leaf disks; after 7 days
Experimental: 1. Phaedon Test (PHAECO Spray Treatment)
as §1, §2
Disks of Chinese cabbage leaves (Brassica pekinensis) are sprayed with an active compound preparation of the desired concentration and, after drying, populated with larvae of the mustard beetle (Phaedon cochleariae).
After 7 days, the effect in % is determined. 100% means that all beetle larvae have been killed; 0% means that none of the beetle larvae have been killed.

[3] = test system: greenhouse red spider mite (Tetranychus urticae); assay: Tetranychus test, OP-resistant (TETRUR spray treatment); details: application rate 100 g/ha; spray on infested bean leaf disks; after 6 days
Experimental: 3. Tetranychus Test, OP-Resistant (TETRUR Spray Treatment)
as §1, §2
Disks of bean leaves (Phaseolus vulgaris) which are infested by all stages of the greenhouse red spider mite (Tetranychus urticae) are sprayed with an active compound preparation of the desired concentration.
After 6 days, the effect in % is determined. 100% here means that all of the spider mites have been killed. 0% means that none of the spider mites have been killed.

adult Musca domestica = assay: Musca domestica test (MUSCDO); details: 100 ppm; treated sponge; after 2 days
Experimental: 6. Musca domestica Test (MUSCDO)
as §3, §4
Vessels containing a sponge treated with the active compound formulation of the desired concentration are populated with adult Musca domestica.
After 2 days, the kill in % is determined. 100% means that all of the flies have been killed; 0% means that none of the flies have been killed.

[4] = test system: adult fleas (Ctenocephalides felis); assay: Ctenocephalides felis; oral (CTECFE); details: 100 ppm in citrated cattle blood, after 2 days
Experimental: 4. Ctenocephalides felis; Oral (CTECFE)
Solvents: 1 part by weight of dimethyl sulfoxide
To produce a suitable preparation of active compound, 10 mg of active compound are mixed with 0.5 ml of dimethyl sulfoxide. A portion of the concentrate is diluted with citrated cattle blood, and the desired concentration is prepared.
About 20 unfed adult fleas (Ctenocephalides felis) are placed into a chamber which is closed at the top and bottom with gauze. A metal cylinder whose bottom end is closed with parafilm is placed onto the chamber. The cylinder contains the blood/active compound preparation, which can be taken up by the fleas through the parafilm membrane.
After 2 days, the kill in % is determined 100% means that all of the fleas have been killed; 0% means that none of the fleas have been killed.

Cooperia curticei larvae = assay: Cooperia curticei test (COOPCU); details: 100 ppm in Ringer solution; after 5 days
Experimental: 7. Cooperia curticei Test (COOPCU)
as §3
To produce a suitable preparation of active compound, 10 mg of active compound are mixed with 0.5 ml of dimethyl sulfoxide, and the concentrate is diluted with Ringer solution to the desired concentration. Vessels containing the active compound preparation of the desired concentration are populated with about 40 Cooperia curticei larvae.
After 5 days, the kill in % is determined. 100% means that all larvae have been killed; 0% means that no larvae have been killed.

[5] = application rate 500 g/ha, spray on infested Chinese cabbage leaf disks, after 6 days

SMILES | pest or weed control at 500 g/ha ([1]; in Brassica rapa) | kill in % (larvae killed) (Lucilia cuprina larvae) | effect in % (beetle larvae killed) [2] | further results
O=c1oc2cccnc2n1Cc1ccc(C(F)(F)F)nc1 [IV-I, 3-(6-trifluoromethylpyridin-3-ylmethyl)oxazolo[4,5-b]-2(3H)-one] | – | – | – | effect in % (aphids killed) [1, 5]: 90%
O=c1nc2n(Cc3ccc(F)nc3)cccc-2o1 [Example I-9, 4-(6-Fluoropyridin-3-ylmethyl)oxazolo[4,5-b]pyridin-2(4H)-one] | 100% | 100% | – | –
O=C1N=C2C(CCCN2Cc2ccc(Cl)nc2)O1 (stereo not shown) [Example I-16, 4-(6-Chloropyridin-3-ylmethyl)-5,6,7,7a-tetrahydrooxazolo[4,5-b]-pyridin-2(4H)-one] | 100% | – | 100% | effect in % (spider mites killed) [3]: 100%
CC(=O)N(Cc1ccc(Cl)nc1)c1ncccc1OCc1ccc(Cl)nc1 [Example I-16a, 2-[(N-acetyl, N′-(6-chloropyridin-3-ylmethyl)amino)]-3-(6-chloropyridin-3-ylmethoxy)pyridine] | – | – | – | effect in % (spider mites killed) [3]: 90%
O=c1nc2n(Cc3cnc(Cl)c(F)c3)cccc-2o1 [Example I-4, 4-(6-Chloro-5-fluoropyridin-3-ylmethyl)oxazolo[4,5-b]pyridin-2(4H)-one] | 100% | 100% | 100% | kill in % (flies killed) (adult Musca domestica): 80%
O=c1nc2n(Cc3ccc(Cl)nc3)cc(Br)cc-2o1 [Example I-11, 6-Bromo-4-(6-chloropyridin-3-ylmethyl)oxazolo[4,5-b]pyridin-2(4H)-one] | 100% | – | – | –
O=c1nc2n(Cc3ccc(Br)nc3)cccc-2o1 [Example I-10, 4-(6-Bromopyridin-3-ylmethyl)oxazolo[4,5-b]pyridin-2(4H)-one] | 100% | – | 100% | –
Cc1cnc(Cn2cccc3oc(=O)nc2-3)cn1 [Example I-5, 4-(5-Methylpyrazin-2-ylmethyl)oxazolo[4,5-b]pyridin-2(4H)-one] | – | – | – | pest or weed control at 500 g/ha [1, 5]: 100%
O=c1oc2cccnc2n1Cc1cnc(Cl)c(Cl)c1 [IV-2, 3-(5,6-dichloropyridin-3-ylmethyl)oxazolo[4,5-b]-2(3H)-one] | – | – | – | effect in % (aphids killed) [1, 5]: 100%
O=c1nc2n(Cc3cnc(Cl)s3)cccc-2o1 [Example I-6, 4-(2-Chloro-1,3-thiazol-5-ylmethyl)oxazolo[4,5-b]pyridin-2(4H)-one] | 100% | 100% | 100% | kill in % (fleas killed) [4]: 80%
O=c1nc2n(Cc3ccc(Cl)nc3)cccc-2o1 [Example I-3, 4-(6-Chloropyridin-3-ylmethyl)oxazolo[4,5-b]pyridin-2(4H)-one] | 100% | 100% | 100% | kill in % (larvae killed) (Cooperia curticei larvae): 80%
O=c1nc2n(Cc3cnc(Cl)c(Cl)c3)cccc-2o1 [Example I-2, 4-(5,6-Dichloropyridin-3-ylmethyl)oxazolo[4,5-b]pyridin-2(4H)-one] | 100% | 100% | 100% | –
O=c1nc2n(Cc3ccc(C(F)(F)F)nc3)cccc-2o1 [Example I-1, 4-(6-Trifluoromethylpyridin-3-ylmethyl)oxazolo[4,5-b]pyridin-2(4H)-one] | – | – | – | pest or weed control at 500 g/ha [1, 5]: 100%
